Measured values taken from patent US5446056A, “Isoxazoline compounds useful as fibrinogen receptor antagonists” (The Du Pont Merck Pharmaceutical Company, priority 1994, dated 1995).

Test system: human platelet rich plasma
Experiment: Platelet aggregation assay (platelet rich plasma, PRP)
Format: cell-based
Details: concentration which inhibits platelet aggregation by 50% relative to control, ester prodrugs preincubated with porcine liver esterase, ADP-induced
Protocol: Platelet Aggregation Assay: Venous blood was obtained from the arm of a healthy human donor who was drug-free and aspirin-free for at least two weeks prior to blood collection. Blood was collected into 10 mL citrated Vacutainer tubes. The blood was centrifuged for 15 minutes at 150×g at room temperature, and platelet-rich plasma (PRP) was removed. The remaining blood was centrifuged for 15 minutes at 1500×g at room temperature, and platelet-poor plasma (PPP) was removed. Samples were assayed on a aggregometer (PAP-4 Platelet Aggregation Profiler), using PPP as the blank (100% transmittance). 200 μL of PRP was added to each micro test tube, and transmittance was set to 0%. 20 μL of various agonists (ADP, collagen, arachidonate, epinephrine, thrombin) were added to each tube, and the aggregation profiles were plotted (% transmittance versus time). The results are expressed as % inhibition of agonist-induced platelet aggregation. […] Percent inhibition is calculated using percent aggregation in the presence of the test compound divided by percent aggregation of control, times 100. […]
Platelet Aggregation Assay; Venous blood was obtained from the arm of a healthy human donor who was drug-free and aspirin-free for at least two weeks prior to blood collection. […] The results are expressed as % inhibition of agonist-induced platelet aggregation. […]

`CCNC(=N)c1ccc(C2=NOC(CC(=O)NCCC(=O)O)C2)cc1` (racemic) [Example 23, 5(R,S)-3-[3-(4-N-ethylamidinophenyl)isoxazolin-5-ylacetyl]aminopropanoic acid] showed an IC50 of under 10 µM.
